This assay has as its target T1, Human OTUB1 wild-type (Homo sapiens, UniProt Q96FW1).
T1 construct: His tag (N); made in house; host or cells: E. coli BL21-CodonPlus (DE3)-RIPIL
The assay is described as follows: Covalent modification of OTUB1 (adduct formation), mass spectrometry-based assay (OTUB1 covalent binders; selected CFTR or cGAS based bivalent compounds). Particulars: covalent adduct formation with OTUB1 protein. Format: binding. Put shortly:
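His-tagged human OTUB1 (10 μM), E. coli-expressed, incubated with compound (2500 μM) in 50 mM Tris-HCl pH 7.5, 150 mM NaCl, 0.5 mM TCEP for 1 h at room temperature. Adduct detected by intact-protein LC/ESI-TOF mass spectrometry after buffer exchange; duplicates.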
T1 sequence (Q96FW1 whole entry): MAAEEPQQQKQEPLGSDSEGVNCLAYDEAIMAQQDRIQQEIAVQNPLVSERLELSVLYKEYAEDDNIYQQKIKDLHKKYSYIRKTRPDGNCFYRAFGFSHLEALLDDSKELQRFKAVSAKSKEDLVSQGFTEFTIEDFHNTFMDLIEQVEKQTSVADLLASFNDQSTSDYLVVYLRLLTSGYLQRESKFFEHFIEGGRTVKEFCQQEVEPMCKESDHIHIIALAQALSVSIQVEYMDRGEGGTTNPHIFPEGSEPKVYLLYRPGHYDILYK
For the compound `Cc1ccc(C(=O)NCC2CCN2C(=O)/C=C/CN(C)C)s1` (stereo not shown) [XS190-127, (E)-N-((1-(4-(dimethylamino)but-2-enoyl)azetidin-2-yl)methyl)-5-methylthiophene-2-carboxamide], the “% of OTUB1 modified” value worked out at 15%.

Consider `CN(C)C/C=C/C(=O)N1C2CC1CN(C(=O)C1CCCC1)C2` [XS190-128, (E)-1-(3-(cyclopentanecarbonyl)-3,6-diazabicyclo[3.1.1]heptan-6-yl)-4-(dimethylamino)but-2-en-1-one], for which the “% of OTUB1 modified” value is recorded as 47%. For the compound `CN(C)C/C=C/C(=O)N1C2CC1CN(C(=O)C1CCCCC1)C2` [XS190-129, (E)-1-(3-(cyclohexanecarbonyl)-3,6-diazabicyclo[3.1.1]heptan-6-yl)-4-(dimethylamino)but-2-en-1-one], the “% of OTUB1 modified” value is reported as 48%.

On to `CC(=O)NCc1ccc(C(=O)N2CC3CC(C2)N3C(=O)/C=C/CN(C)C)s1` [XS190-130, (E)-N-((5-(6-(4-(dimethylamino)but-2-enoyl)-3,6-diazabicyclo[3.1.1]heptane-3-carbonyl)thiophen-2-yl)methyl)acetamide], for which the “% of OTUB1 modified” value came out at 53%. To `Cc1ocnc1C(=O)N1CC2CC(C1)N2C(=O)/C=C/CN(C)C` [XS190-137, (E)-4-(dimethylamino)-1-(3-(5-methyloxazole-4-carbonyl)-3,6-diazabicyclo[3.1.1]heptan-6-yl)but-2-en-1-one] belongs 20%; to `COCc1ccc(C(=O)N2CC3CC(C2)N3C(=O)/C=C/CN(C)C)s1` [XS190-138, (E)-4-(dimethylamino)-1-(3-(5-(methoxymethyl)thiophene-2-carbonyl)-3,6-diazabicyclo[3.1.1]heptan-6-yl)but-2-en-1-one], 45%. For `CN(C)C/C=C/C(=O)N1C2CCC1C(=O)N(C1CCCC1)C2` (stereo not shown) [XS190-144, (E)-3-cyclopentyl-8-(4-(dimethylamino)but-2-enoyl)-3,8-diazabicyclo[3.2.1]octan-2-one] the value was 80%; for `Cc1ccc(C(=O)N2CC3CC(C2)N3C(=O)/C=C/CN(C)C)o1` [XS190-157, (E)-4-(dimethylamino)-1-(3-(5-methylfuran-2-carbonyl)-3,6-diazabicyclo[3.1.1]heptan-6-yl)but-2-en-1-one], 80%; for `Cc1ccc(CN2CC3CC(C2)N3C(=O)/C=C/CN(C)C)s1` [XS190-158, (E)-4-(dimethylamino)-1-(3-((5-methylthiophen-2-yl)methyl)-3,6-diazabicyclo[3.1.1]heptan-6-yl)but-2-en-1-one], 8%. For the compound `CC1CCC(C(=O)N2CC3CC(C2)N3C(=O)/C=C/CN(C)C)C1` (stereo not shown) [XS190-170, (E)-4-(dimethylamino)-1-(3-(3-methylcyclopentane-1-carbonyl)-3,6-diazabicyclo[3.1.1]heptan-6-yl)but-2-en-1-one], the “% of OTUB1 modified” value stood at 55%. `Cc1cccc(N2CC3CCC(C2=O)N3C(=O)/C=C/CN(C)C)n1` (stereo not shown) [XS190-181, (E)-8-(4-(dimethylamino)but-2-enoyl)-3-(6-methylpyridin-2-yl)-3,8-diazabicyclo[3.2.1]octan-2-one]: the “% of OTUB1 modified” value was 30%.

In the case of `Cc1cccc(N2CC3CCC(C2=O)N3C(=O)/C=C/CN(C)C)c1` (stereo not shown) [XS190-182, (E)-8-(4-(dimethylamino)but-2-enoyl)-3-(m-tolyl)-3,8-diazabicyclo[3.2.1]octan-2-one], the “% of OTUB1 modified” value was 90%. Regarding `Cc1cnc(N2CC3CCC(C2=O)N3C(=O)/C=C/CN(C)C)s1` (stereo not shown) [XS190-183, (E)-8-(4-(dimethylamino)but-2-enoyl)-3-(5-methylthiazol-2-yl)-3,8-diazabicyclo[3.2.1]octan-2-one], the “% of OTUB1 modified” value stood at 95%. On to `CC(=O)N1CC2CC(C1)N2C(=O)/C=C/CN(C)C` [XS190-186, (E)-1-(3-acetyl-3,6-diazabicyclo[3.1.1]heptan-6-yl)-4-(dimethylamino)but-2-en-1-one], for which the “% of OTUB1 modified” value turned out to be 70%. To `CN(C)C/C=C/C(=O)N1C2CCC1C(=O)N(C)C2` (stereo not shown) [XS197-4, (E)-8-(4-(dimethylamino)but-2-enoyl)-3-methyl-3,8-diazabicyclo[3.2.1]octan-2-one] belongs 75%. For `CC(=O)N1CCC(C(=O)N2CC3CC(C2)N3C(=O)/C=C/CN(C)C)CC1` [XS197-6, (E)-1-(3-(1-acetylpiperidine-4-carbonyl)-3,6-diazabicyclo[3.1.1]heptan-6-yl)-4-(dimethylamino)but-2-en-1-one], the “% of OTUB1 modified” value came to 22%. With `Cc1ccc(N2CC3CCC(C2=O)N3C(=O)/C=C/CN(C)C)[nH]1` (stereo not shown) [XS197-14, (E)-8-(4-(dimethylamino)but-2-enoyl)-3-(5-methyl-1H-pyrrol-2-yl)-3,8-diazabicyclo[3.2.1]octan-2-one], the “% of OTUB1 modified” value amounted to 85%. `CN1CC2CCC(C1=O)N2C(=O)CCl` (stereo not shown) [XS197-29, 8-(2-chloroacetyl)-3-methyl-3,8-diazabicyclo[3.2.1]octan-2-one]: the “% of OTUB1 modified” value turned out to be 75%. Regarding `CN(C)C/C=C/C(=O)N1C2CC1CN(C(=O)C1CCC1)C2` [XS197-38, (E)-1-(3-(cyclobutanecarbonyl)-3,6-diazabicyclo[3.1.1]heptan-6-yl)-4-(dimethylamino)but-2-en-1-one], the “% of OTUB1 modified” value is given as 43%. For `CC(C)c1ccc(C(=O)N2CC3CC(C2)N3C(=O)/C=C/CN(C)C)s1` [XS197-49, (E)-4-(dimethylamino)-1-(3-(5-isopropylthiophene-2-carbonyl)-3,6-diazabicyclo[3.1.1]heptan-6-yl)but-2-en-1-one], the “% of OTUB1 modified” value is recorded as 85%. As for `CC(C)C(=O)N1CC2CC(C1)N2C(=O)/C=C/CN(C)C` [XS197-50, (E)-4-(dimethylamino)-1-(3-isobutyryl-3,6-diazabicyclo[3.1.1]heptan-6-yl)but-2-en-1-one], the “% of OTUB1 modified” value stood at 8%.

For the compound `CN(C)C/C=C/C(=O)N1C2CCC1C(=O)N(C1CCC1)C2` (stereo not shown) [XS197-70, (E)-3-cyclobutyl-8-(4-(dimethylamino)but-2-enoyl)-3,8-diazabicyclo[3.2.1]octan-2-one], the “% of OTUB1 modified” value came out at 75%.

With `CC(=O)N1CCC(c2ccc(C(=O)N3CC4CC(C3)N4C(=O)/C=C/CN(C)C)s2)C1` (stereo not shown) [XS197-71, (E)-1-(3-(5-(1-acetylpyrrolidin-3-yl)thiophene-2-carbonyl)-3,6-diazabicyclo[3.1.1]heptan-6-yl)-4-(dimethylamino)but-2-en-1-one], the “% of OTUB1 modified” value was found to be 78%. For `CC(=O)N1CCC(c2ccc(C(=O)N3CC4CC(C3)N4C(=O)/C=C/CN(C)C)s2)CC1` [XS197-72, (E)-1-(3-(5-(1-acetylpiperidin-4-yl)thiophene-2-carbonyl)-3,6-diazabicyclo[3.1.1]heptan-6-yl)-4-(dimethylamino)but-2-en-1-one] the value was 90%; for `CN(C)C/C=C/C(=O)N1C2CC1CN(C(=O)c1ccc(C3CCN(C)C3)s1)C2` (stereo not shown) [XS197-73, (E)-4-(dimethylamino)-1-(3-(5-(1-methylpyrrolidin-3-yl)thiophene-2-carbonyl)-3,6-diazabicyclo[3.1.1]heptan-6-yl)but-2-en-1-one], 90%.

Regarding `CN(C)C/C=C/C(=O)N1C2CC1CN(C(=O)c1ccc(C3CCN(C)CC3)s1)C2` [XS197-74, (E)-4-(dimethylamino)-1-(3-(5-(1-methylpiperidin-4-yl)thiophene-2-carbonyl)-3,6-diazabicyclo[3.1.1]heptan-6-yl)but-2-en-1-one], the “% of OTUB1 modified” value is on record as 92%. Take `CN(C)C/C=C/C(=O)N1C2CC1CN(C(=O)C1CN(C)C1)C2` [XS197-85, (E)-4-(dimethylamino)-1-(3-(1-methylazetidine-3-carbonyl)-3,6-diazabicyclo[3.1.1]heptan-6-yl)but-2-en-1-one]: the “% of OTUB1 modified” value is recorded as 45%. In the case of `COCC#Cc1ccc(C(=O)N2CC3CC(C2)N3C(=O)/C=C/CN(C)C)s1` [XS197-93, (E)-4-(dimethylamino)-1-(3-(5-(3-methoxyprop-1-yn-1-yl)thiophene-2-carbonyl)-3,6-diazabicyclo[3.1.1]heptan-6-yl)but-2-en-1-one], the “% of OTUB1 modified” value came to 80%. To `CN(C)C/C=C/C(=O)N1C2CC1CN(C(=O)c1ccc(C#CCO)s1)C2` [XS197-94, (E)-4-(dimethylamino)-1-(3-(5-(3-hydroxyprop-1-yn-1-yl)thiophene-2-carbonyl)-3,6-diazabicyclo[3.1.1]heptan-6-yl)but-2-en-1-one] belongs 80%.

`CC(=O)OCC#Cc1ccc(C(=O)N2CC3CC(C2)N3C(=O)/C=C/CN(C)C)s1` [XS197-96, (E)-3-(5-(6-(4-(dimethylamino)but-2-enoyl)-3,6-diazabicyclo[3.1.1]heptane-3-carbonyl)thiophen-2-yl)prop-2-yn-1-yl acetate]: the “% of OTUB1 modified” value is 45%. As for `CC(=O)N1CC2(CC(C(=O)N3CC4CC(C3)N4C(=O)/C=C/CN(C)C)C2)C1` [XS197-133, (E)-1-(3-(2-acetyl-2-azaspiro[3.3]heptane-6-carbonyl)-3,6-diazabicyclo[3.1.1]heptan-6-yl)-4-(dimethylamino)but-2-en-1-one], the “% of OTUB1 modified” value amounted to 25%. For the compound `CC(=O)N1CCC(c2ccc(N3CC4CCC(C3=O)N4C(=O)/C=C/CN(C)C)s2)CC1` (stereo not shown) [XS197-145, (E)-3-(5-(1-acetylpiperidin-4-yl)thiophen-2-yl)-8-(4-(dimethylamino)but-2-enoyl)-3,8-diazabicyclo[3.2.1]octan-2-one], the “% of OTUB1 modified” value was determined as 90%.

In the case of `CC(=O)N1CCC2(CC1)CC(C(=O)N1CC3CC(C1)N3C(=O)/C=C/CN(C)C)C2` [XS197-176, (E)-1-(3-(7-acetyl-7-azaspiro[3.5]nonane-2-carbonyl)-3,6-diazabicyclo[3.1.1]heptan-6-yl)-4-(dimethylamino)but-2-en-1-one], the “% of OTUB1 modified” value is recorded as 30%. In the case of `Cc1ccc(N2CC3CCC(C2=O)N3C(=O)C#CCN(C)C)s1` (stereo not shown) [XS197-185, 8-(4-(dimethylamino)but-2-ynoyl)-3-(5-methylthiophen-2-yl)-3,8-diazabicyclo[3.2.1]octan-2-one], the “% of OTUB1 modified” value worked out at 95%.

The values are drawn from patent US20260315604A1, “OTUB1 Small-Molecule Binders and OTUB1-recruiting Deubiquitinase-targeting Chimeras (DUBTACs)” (ICAHN SCHOOL OF MEDICINE AT MOUNT SINAI, priority 2023, published 2026).
